Read-outs that look alike come from different tables or passages of the source.
How the values were obtained:
MCF-7 cells = experiment: Estrogenic activity in MCF-7 cells; type: cell-based, human; conditions: 7 days, concentrations up to 5 μM
Procedure: MCF-7 cells were seeded with medium supplemented with insulin (50 ng/mL) and 5% dextran-coated charcoal treated FBS rather than 10% FBS to remove remaining hormones. Aliquots (100 μL) of the cell suspension were seeded in 96-well plates (3000 cells/well). […] Cells were grown either in the absence or presence of the compounds over a period of 7 days. Quantification of cell growth was determined by using the CellTiter 96®Aqueous Solution Cell Proliferation Assay (Promega, Nepean, ON, Canada) following the manufacturer's instructions. To determine the proliferative (estrogenic) activity, the cells were grown in the absence (control fixed as 100%) or presence of the tested compounds at the indicated concentrations.

CYP3A4 = molecular target: T1, CYP3A4 (Homo sapiens, UniProt P08684); experiment: Inhibition of CYP3A4 (P450 Inhibition Kit CYP3A4/DBF); type: in vitro ADME
T1 construct: purchased BD Biosciences
T1 sequence (P08684 whole entry): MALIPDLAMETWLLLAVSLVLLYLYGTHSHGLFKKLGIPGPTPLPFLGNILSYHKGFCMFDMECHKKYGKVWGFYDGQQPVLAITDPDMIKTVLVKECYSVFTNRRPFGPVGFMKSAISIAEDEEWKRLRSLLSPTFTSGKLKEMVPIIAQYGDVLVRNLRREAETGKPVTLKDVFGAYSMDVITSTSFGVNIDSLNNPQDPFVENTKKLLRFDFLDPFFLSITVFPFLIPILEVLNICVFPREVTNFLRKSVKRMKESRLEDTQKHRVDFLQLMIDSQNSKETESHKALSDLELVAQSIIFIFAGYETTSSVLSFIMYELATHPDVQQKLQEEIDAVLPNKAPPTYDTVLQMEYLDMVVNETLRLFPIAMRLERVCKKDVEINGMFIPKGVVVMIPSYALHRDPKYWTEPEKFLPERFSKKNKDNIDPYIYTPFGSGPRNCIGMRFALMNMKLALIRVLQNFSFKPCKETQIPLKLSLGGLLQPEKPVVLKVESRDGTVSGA

[1] = Plasma concentration of inhibitor after a single subcutaneous injection; conditions: rat, in vivo, sc
Procedure: Six week-old male Sprague-Dawley rats weighing approximately 220 g were obtained from Charles-River, Inc. (St-Constant, Qc., Canada). The animals were housed 3 per cage. A pharmacokinetic study was carried out following one subcutaneous (s.c.) injection of the inhibitor at one concentration (2.3 mg/kg of body weight in 0.5 mL of vehicle fluid). The inhibitor was first dissolved in ethanol (EtOH) and thereafter we added propylene glycol (PG) to obtain a final concentration of EtOH of 8%. During this experiment, the rats were housed individually and were fasted for 8 h before inhibitor injection but allowed free access to water. Blood samples for determination of inhibitor plasma concentration were collected at the jugular vein (0.4 mL by animal) at target intervals of 3, 7, 12 and 24 h post-dose for Compound V and 3 and 12 h for CC-156, from three rats per time point. After the collection at 7 h, a replacement fluid (0.9% sodium chloride injection USP) was injected in the rat. Blood samples were collected into Microvette potassium-EDTA (ethylenediamine tetraacetic acid)-coated tube (Sarstedt, Aktiegesellchaft & Co, Germany) and centrifuged at 3200 rpm for 10 minutes at 4° C. The plasma was collected and stored at −80° C. until analyzed by liquid chromatography/mass spectrometry/mass spectrometry (LC/MS/MS) analysis.
The concentration of the inhibitors (Compounds I and V) was determined by LC/MS/MS analysis using a procedure developed at CHUQ (CHUL)-Research Center (Québec, Qc, Canada). Briefly, for extraction from serum, 100 μL of serum sample is transferred to individual tubes and 600 μL of ammonium acetate (1 mM) is added. A methanolic solution (50 μL) containing a steroidal internal standard is then added to each tube. Samples are transferred on Strata-X SPE columns (Phenomenex, Torrance, Calif., USA), which have been conditioned with 2 mL of methanol and 2 mL of water. Each column is washed with 2 mL of methanol:water (10:90, v/v). The inhibitor is then eluted with 5 mL of methanol containing 5 mM ammonium acetate. Methanol is evaporated at 45° C. under inert atmosphere and the residue dissolved in 100 μL of methanol:water (85:15, v/v). For the steroid analysis, the HPLC system uses a 75×4.6-mm, 3 μm reversed-phase Luna Phenyl-Hexyl column (Phenomenex, Torrance, Calif., USA) at a flow rate of 0.8 mL/min. The inhibitor is detected using an API 3000 mass spectrometer, equipped with TurbolonSpray (Applied Biosystems, Canada). ESI in positive ion mode was used. The area under the curve (AUC) was calculated using the linear trapezoidal rule.

17β-HSD1 = molecular target: T2, 17β-HSD1 (Homo sapiens, UniProt P14061); experiment: Inhibition of 17β-HSD1 in T-47D intact cells (E1 into E2); type: cell-based; conditions: for inhibition at 0.01 µM: read-out: Inhibition % (0.01 μM)
T2 construct: endogenous in cells; host or cells: T-47D
T2 sequence (P14061 1-328): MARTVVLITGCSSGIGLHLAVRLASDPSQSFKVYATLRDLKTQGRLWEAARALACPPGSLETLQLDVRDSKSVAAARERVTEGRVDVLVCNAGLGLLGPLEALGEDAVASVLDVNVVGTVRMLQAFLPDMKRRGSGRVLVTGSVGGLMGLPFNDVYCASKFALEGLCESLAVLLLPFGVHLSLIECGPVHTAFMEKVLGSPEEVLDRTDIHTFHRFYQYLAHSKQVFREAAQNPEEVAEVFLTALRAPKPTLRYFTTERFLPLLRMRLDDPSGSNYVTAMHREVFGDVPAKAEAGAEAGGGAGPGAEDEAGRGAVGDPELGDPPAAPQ
Procedure: T-47D cells were seeded in a 24-well plate (3000 cells/well) in medium supplemented with insulin (50 ng/mL) and 5% dextran-coated charcoal treated FBS rather than 10% FBS to remove remaining hormones. […] Each inhibitor was assessed in triplicate. After incubation, the culture medium was removed and labelled steroids (E1 and E2) extracted with 1 mL of diethyl ether. The organic phases were separated and evaporated to dryness using nitrogen. Residues were dissolved in dichloromethane and dropped on silica gel thin layer chromatography plates (EMD Chemicals Inc., Gibbstown, N.J., USA) and eluted with a toluene/acetone (4:1) solvent system. Substrate [^14C]-E1 and metabolite [^14C]-E2 were identified by comparison with reference steroids and quantified using a Storm 860 system (Molecular Dynamics, Sunnyvale, Calif., USA).
T-47D cells were seeded in a 24-well plate (3000 cells/well) in 990 μL of medium supplemented with insulin (50 ng/mL) and 5% dextran-coated charcoal-treated FBS, which was used rather than untreated 10% FBS, to remove the remaining steroid hormones. […] The final concentration of ethanol in the well was adjusted to 0.1%. Additionally, 5 μL of a solution of [^14C]-estrone (American Radiolabeled Chemicals, Inc., St. Louis, Mo., USA) was added to obtain a final concentration of 60 nM. […] After incubation, the culture medium was removed and labeled steroids (E1 and E2) were extracted with 1 mL of diethyl ether. The organic phases were evaporated to dryness with nitrogen. Residues were dissolved in dichloromethane and dropped on silica gel thin layer chromatography plates (EMD Chemicals Inc., Gibbstown, N.J., USA) and eluted with toluene/acetone (4:1) as solvent system. Substrate [^14C]-E1 and metabolite [^14C]-E2 were identified by comparison with reference steroids (E1 and E2) and quantified using the Storm 860 system (Molecular Dynamics, Sunnyvale, Calif., USA).

SMILES | estrogenic activity on MCF-7 cells (FIG. 1) (MCF-7 cells) | IC50 (CYP3A4; read-out: IC50 on CYP3A4) [nM] | time at which maximum plasma concentration (Cmax) was attained ([1]; 2.3 mg/kg) [h] | inhibition at 0.01 µM (17β-HSD1; T47D, [14C]-E1 (60 nM) into [14C]-E2, T-47D intact cells, 0.01 μM) [%] | inhibition at 0.1 µM (17β-HSD1; T47D, [14C]-E1 (60 nM) into [14C]-E2, T-47D intact cells, 0.1 μM, read-out: Inhibition % (0.1 μM)) [%] | IC50 (CYP3A4) [nM] | concentration at 7 h ([1]; male, Sprague-Dawley, s.c. 2.3 mg/kg, 7 h) [ng/mL] | concentration at 12 h ([1]; male, Sprague-Dawley, s.c. 2.3 mg/kg, 12 h) [ng/mL] | concentration at 24 h ([1]; male, Sprague-Dawley, s.c. 2.3 mg/kg, 24 h) [ng/mL] | AUC(0-t) ([1]; male, Sprague-Dawley, s.c. 2.3 mg/kg, read-out: AUC0-24 h) [ng·h/mL] | inhibition at 0.01 µM (17β-HSD1; T47D) [%] | inhibition at 0.1 µM (17β-HSD1; T47D, read-out: Inhibition % (0.1 μM)) [%] | inhibition at 0.1 µM (17β-HSD1; T47D, read-out: Inhibition (0.1 μM)) [%] | inhibition at 1 µM (17β-HSD1; T47D, read-out: Inhibition (1 μM)) [%] | IC50 (17β-HSD1; T-47D intact cells, [14C]-E1 60 nM) [nM]
C[C@]12CC[C@@H]3c4ccc(O)cc4CC[C@H]3[C@@H]1C[C@H](Cc1cccc(C(N)=O)c1)[C@@H]2O [Compound I, 16β-(m-carbamoylbenzyl)estradiol, reference compound] | strongly stimulated the estrogen sensitive MCF-7 cells | 1520 ± 290 | 3 | 35 | 66 | – | – | – | – | – | – | – | – | – | –
C[C@]12CC[C@@H]3c4ccc(CCBr)cc4CC[C@H]3[C@@H]1C[C@H](Cc1cccc(C(N)=O)c1)[C@@H]2O [Compound V, 3-{[(16β,17β)-3-(2-bromoethyl)-17-hydroxyestra-1(10),2,4-trien-16-yl]methyl}benzamide] | no estrogenicity | – | – | – | – | 4060 ± 570 | 73.8 | 50.7 | 11.7 | 1150 | 23 | 49 | 56 | 89 | 68

Reference: US11072632B2, “Inhibitors of 17β-HSD1, 17β-HSD3 and 17β-HSD10” (UNIVERSITÉ LAVAL, priority 2011, dated 2021)
